Data reported in patent publication US9510598B2, “Nitrogen-containing heterocyclic compounds for plant disease control” (BAYER CROPSCIENCE AG, priority 2012, dated 2016).
Several values for one entry are separate records, joined by “and”; a condition that tells them apart may be missing. Equal entries are not always repeated.

details: Table 2, formula (II); method [a]: pH 2.7, 0.1% formic acid in water / acetonitrile gradient

Structure (SMILES)	Log P
CC1(C(=O)O)CC(c2cc3cc(Br)cnc3cc2F)=NO1 (racemic) [II-07]	2.14[a]
O=C(O)C1(CBr)CC(c2ccc3ncc(Br)cc3c2)=NO1 (racemic) [II-11]	2.19[a]
O=C(O)C1(c2ccccc2)CC(c2ccc3ncc(Br)cc3c2)=NO1 (racemic) [II-12]	2.76[a]
O=C(O)C1(C(F)(F)F)CC(c2cc3cc(Br)cnc3c(F)c2F)=NO1 (racemic) [II-13]	2.01[a]
COC(=O)C1(C(F)(F)F)CC(c2ccc3ncc(Br)cc3c2)=NO1 (racemic) [II-14]	3.4[a]
COC(=O)C1(CCl)CC(c2ccc3ncc(Br)cc3c2)=NO1 (racemic) [II-16]	3.03[a]
COC(=O)C1(c2ccccc2)CC(c2ccc3ncc(Br)cc3c2)=NO1 (racemic) [II-17]	2.69[a]
COC(=O)C1(C2CC2)CC(c2ccc3ncc(Br)cc3c2)=NO1 (racemic) [II-18]	3.27[a]
CCOC(=O)C1(C)CC(c2ccc3ncccc3c2)=NO1 (racemic) [II-20]	1.6[a]
COC(=O)C1(C(F)(F)F)CC(c2cc3cc(Br)cnc3c(F)c2F)=NO1 (racemic) [II-22]	3.72[a]
COC(=O)C1(OC)CC(c2ccc3ncc(Br)cc3c2)=NO1 (centres unmarked) [II-25]	3.29[a]
COC(=O)C1(C)CC(c2ccc3ncc(C#C[Si](C)(C)C)cc3c2)=NO1 (centres unmarked) [II-26]	4.31[a]
COC(=O)C1(C)CC(c2cc3cccnc3c(F)c2F)=NO1 (centres unmarked) [II-29]	2.11[a]
COC(=O)C1(C)CC(c2ccc3ncc(I)cc3c2)=NO1 (centres unmarked) [II-30]	2.71[a]
COC(=O)C1(C)CC(c2cc3cc(Br)cnc3cc2F)=NO1 (centres unmarked) [II-34]	2.94[a]
O=C(O)C1(C2CC2)CC(c2ccc3ncc(Br)cc3c2)=NO1 (centres unmarked) [II-37]	2.43[a]
COC(=O)C1(C(C)=O)CC(c2ccc3ncc(Br)cc3c2)=NO1 (centres unmarked) [II-40]	2.94[a]
COC(=O)C1ON=C(c2ccc3ncc(Br)cc3c2)C12CC2 (centres unmarked) [II-41]	2.71[a]
CCOC(=O)C1(C)ON=C(c2ccc3ncc(Br)cc3c2)C1CC (centres unmarked) [II-42]	3.74[a]
CC1(C(=O)O)CC(c2ccc3nc(Cl)c(Br)cc3c2)=NO1 (centres unmarked) [II-43]	2.57[a]

Structure (SMILES)	Log P
COC(=O)C1(C)CC(c2ccc3nc(Cl)c(Br)cc3c2)=NO1 (centres unmarked) [II-44]	3.74[a]
CC1(C(=O)O)CC(c2ccc3nc(C#N)c(Br)cc3c2)=NO1 (centres unmarked) [II-46]	2.23[a]
COC(=O)C1(C)CC(c2ccc3nc(C#N)c(Br)cc3c2)=NO1 (centres unmarked) [II-47]	3.02[a]
COC(=O)CC1(C(=O)O)CC(c2ccc3ncc(Br)cc3c2)=NO1 (centres unmarked) [II-50]	1.98[a]
COC(=O)C12ON=C(c3ccc4ncc(Br)cc4c3)C1C2C (centres unmarked) [II-51]	3.09[a]
C#Cc1cc2cc(C3=NOC(C)(C(=O)O)C3)ccc2nc1Cl (centres unmarked) [II-55]	2.24[a]
CCOC(=O)C1(CC)CC(c2ccc3ncc(Br)cc3c2)=NO1 (centres unmarked) [II-63]	3.53[a]
O=C(O)C1(CC2CC2)CC(c2ccc3ncc(Br)cc3c2)=NO1 (centres unmarked) [II-66]	2.70[a]
C=C(Cl)C1(C(=O)OC)CC(c2ccc3ncc(Br)cc3c2)=NO1 (centres unmarked) [II-70]	3.68[a]
C=C(C)C1(C(=O)OC)CC(c2ccc3ncc(Br)cc3c2)=NO1 (centres unmarked) [II-72]	3.44[a]
C#Cc1cnc2c(C)cc(C3=NOC(C)(C(=O)OC)C3)cc2c1 (centres unmarked) [II-74]	3.07[a]
COC(=O)C1(C)CC(c2cc(Cl)c3ncc(Br)cc3c2)=NO1 (centres unmarked) [II-76]	3.29[a]
C#Cc1cnc2c(Cl)cc(C3=NOC(C)(C(=O)O)C3)cc2c1 (centres unmarked) [II-78]	2.20[a]
CC1(C(=O)O)CC(c2ccc3nc(C#N)c(I)cc3c2)=NO1 (centres unmarked) [II-82]	2.24[a]
CC1(C(=O)O)CC(c2ccc3nc(Cl)c(I)cc3c2)=NO1 (centres unmarked) [II-83]	2.59[a]
COC(=O)C1(SC)CC(c2ccc3ncc(Br)cc3c2)=NO1 (centres unmarked) [II-84]	3.05[a]
C#Cc1cnc2c(C)cc(C3=NOC(OC)(C(=O)OCC)C3)cc2c1 (centres unmarked) [II-86]	3.46[a]
CSC1(C(=O)O)CC(c2ccc3ncc(Br)cc3c2)=NO1 (centres unmarked) [II-88]	2.01[a]
N#CC1(C(=O)O)CC(c2ccc3ncc(Br)cc3c2)=NO1 (centres unmarked) [II-94]	1.42[a]

The remaining lines, values ahead:

Log P	Structure (SMILES)
1.85[a]	O=C(O)C1(C(F)(F)F)CC(c2ccc3ncc(Br)cc3c2)=NO1 (racemic) [II-08]
1.71[a]	C#Cc1cnc2ccc(C3=NOC(C)(C(=O)O)C3)cc2c1 (racemic) [II-10]
3.04[a]	COC(=O)C1(OC)CC(c2cc3cc(Br)cnc3c(F)c2F)=NO1 (racemic) [II-24]
3.55[a]	COC(=O)C1(C)CC(c2cc(C)c3ncc(Br)cc3c2)=NO1 (centres unmarked) [II80]
3.06[a]	COC(=O)C1(C)CC(c2cc3cc(Br)cnc3c(F)c2F)=NO1 (centres unmarked) [II-27]
3.23[a]	COC(=O)C12CCCC1C(c1ccc3ncc(Br)cc3c1)=NO2 (centres unmarked) [II-31]
2.80[a]	COC(=O)C12OCCCC1C(c1ccc3ncc(Br)cc3c1)=NO2 (centres unmarked) [II-32]
2.69[a]	COC(=O)C1(C)CC(c2ccc3ncc(Br)cc3c2)=NO1 (centres unmarked) [II-33]
2.35[a]	C#Cc1cnc2ccc(C3=NOC(C)(C(=O)OC)C3)cc2c1 (centres unmarked) [II-35]
1.94[a]	O=C(O)C1(CF)CC(c2ccc3ncc(Br)cc3c2)=NO1 (centres unmarked) [II-36]
2.64[a]	COc1nc2ccc(C3=NOC(C)(C(=O)O)C3)cc2cc1Br (centres unmarked) [II-38]
2.58[a]	COC(=O)C1(C(C)=NO)CC(c2ccc3ncc(Br)cc3c2)=NO1 (centres unmarked) [II-39]
1.74[a]	COC(=O)C1(C)CC(c2ccc3nc(O)c(Br)cc3c2)=NO1 (centres unmarked) [II-45]
3.99[a]	CCOC(=O)C1(C)ON=C(c2ccc3ncc(Br)cc3c2)C1OCC (centres unmarked) [II-49]
1.99[a]	COC(=O)C1(CO)CC(c2ccc3ncc(Br)cc3c2)=NO1 (centres unmarked) [II-52]
3.42[a]	C[Si](C)(C)CC1(C(=O)O)CC(c2ccc3ncc(Br)cc3c2)=NO1 (centres unmarked) [II-54]
3.01[a]	C#Cc1cc2cc(C3=NOC(C)(C(=O)OC)C3)ccc2nc1Cl (centres unmarked) [II-56]
2.53[a]	CCOC(=O)C1(OCC)CC(c2ccc3ncc(Br)cc3c2)=NO1 (centres unmarked) [II-57]
3.80[a]	CCOC(=O)C1(C[Si](C)(C)C)CC(c2ccc3ncc(Br)cc3c2)=NO1 (centres unmarked) [II-58]
3.53[a]	CC(C)OC(=O)C1(C)CC(c2ccc3ncc(Br)cc3c2)=NO1 (centres unmarked) [II-59]

Log P	Structure (SMILES)
3.34 and 3.62	COC(=O)C1(C)CC(c2ccc3nc(Cl)c(I)cc3c2)=NO1 (centres unmarked) [II-60]
3.13[a]	CCOC(=O)C1(CF)CC(c2ccc3ncc(Br)cc3c2)=NO1 (centres unmarked) [II-62]
2.30[a]	CCC1(C(=O)O)CC(c2ccc3ncc(Br)cc3c2)=NO1 (centres unmarked) [II-64]
5.19[a]	CCOC(=O)C1(CC)CC(c2ccc3ncc(C#C[Si](C)(C)C)cc3c2)=NO1 (centres unmarked) [II-67]
3.02[a]	COC(=O)C1(C)CC(c2ccc3nc(C#N)c(I)cc3c2)=NO1 (centres unmarked) [II-68]
2.05[a]	C#Cc1cnc2ccc(C3=NOC(CC)(C(=O)O)C3)cc2c1 (centres unmarked) [II-69]
2.20[a]	C#Cc1cnc2ccc(C3=NOC(OC)(C(=O)OCCCC(C)NC(C)CCCOC(=O)C4(OC)CC(c5ccc6ncc(C#C)cc6c5)=NO4)C3)cc2c1 (centres unmarked) [II-71]
2.52[a]	C=C(C)C1(C(=O)O)CC(c2ccc3ncc(Br)cc3c2)=NO1 (centres unmarked) [II-73]
2.92[a]	C#Cc1cnc2c(Cl)cc(C3=NOC(C)(C(=O)OC)C3)cc2c1 (centres unmarked) [II-75]
2.45[a]	CC1(C(=O)O)CC(c2cc(Cl)c3ncc(Br)cc3c2)=NO1 (centres unmarked) [II-79]
2.30[a]	C#Cc1cnc2c(C)cc(C3=NOC(C)(C(=O)O)C3)cc2c1 (centres unmarked) [II-81]
2.64[a]	Cc1cc(C2=NOC(C)(C(=O)O)C2)cc2cc(Br)cnc12 (centres unmarked) [II-85]
3.69[a]	CCOC(=O)C1(OC)CC(c2cc(Cl)c3ncc(Br)cc3c2)=NO1 (centres unmarked) [II-87]
2.19[a]	COC1(C(=O)O)CC(c2cc(Cl)c3ncc(Br)cc3c2)=NO1 (centres unmarked) [II-89]
1.95[a]	C#Cc1cnc2c(Cl)cc(C3=NOC(OC)(C(=O)O)C3)cc2c1 (centres unmarked) [II-90]
3.99[a]	CCOC(=O)C1(OC)CC(c2cc(C)c3ncc(Br)cc3c2)=NO1 (centres unmarked) [II-91]
2.42[a]	COC1(C(=O)O)CC(c2cc(C)c3ncc(Br)cc3c2)=NO1 (centres unmarked) [II-92]
2.07[a]	C#Cc1cnc2c(C)cc(C3=NOC(OC)(C(=O)O)C3)cc2c1 (centres unmarked) [II-93]
3.29[a]	COC(=O)C1(C)CC(c2ccc3ncc(Br)c(Cl)c3c2)=NO1 (centres unmarked) [II-95]
2.34[a]	CC1(C(=O)O)CC(c2ccc3ncc(Br)c(Cl)c3c2)=NO1 (centres unmarked) [II-96]

same assay, conditions: Table 3, formula (V); method [a]: pH 2.7, 0.1% formic acid in water / acetonitrile gradient

Structure (SMILES)	Log P
ON=Cc1ccc2ncc(I)cc2c1 [V-07]	1.98[a]
ON=C(Cl)c1ccc2ncc(Br)cc2c1 [V-10]	2.52[a]
ON=Cc1ccc2ncc(Cl)cc2c1 [V-11]	1.78[a]
ON=Cc1ccc2ncc(I)cc2c1 [V-13]	2.08[a]
C#Cc1cnc2c(C)cc(C=NO)cc2c1 [V-15]	2.21[a]
ON=Cc1cc(Cl)c2ncc(Br)cc2c1 [V-17]	2.40[a]
ON=C(Cl)c1cc(Cl)c2ncc(Br)cc2c1 [V-18]	3.10[a]
Cc1cc(C(Cl)=NO)cc2cc(Br)cnc12 [V-19]	3.37[a]
ON=C(Cl)c1ccc2ncc(Br)c(Cl)c2c1 [V-22]	3.16[a]

Further lines, results first:

Log P	Structure (SMILES)
1.48[a]	ON=Cc1cc2cccnc2c(F)c1F [V-01]
2.04[a]	ON=C(Cl)c1cc2cccnc2c(F)c1F [V-02]
2.92[a]	ON=C(Cl)c1cc2cc(Br)cnc2c(F)c1F [V-03]
2.21[a]	ON=Cc1cc2cc(Br)cnc2cc1F [V-05]
2.63[a]	ON=C(Cl)c1cc2cc(Br)cnc2cc1F [V-06]
2.63[a]	ON=C(Cl)c1ccc2ncc(I)cc2c1 [V-08]
1.88[a]	ON=Cc1ccc2ncc(Br)cc2c1 [V-09]
2.77[a]	ON=C(Cl)c1ccc2ncc(I)cc2c1 [V-14]
2.61[a]	Cc1cc(C=NO)cc2cc(Br)cnc12 [V-16]
2.43[a]	ON=Cc1ccc2ncc(Br)c(Cl)c2c1 [V-21]
